Measured values taken from patent US6461997B1, “Triazole sulfones having herbicidal activity” (Monsanto Technology LLC, priority 1999, dated 2002).

How the values were obtained:
[1] = system: LAMPU (purple deadnettle); experiment: Pre-emergence herbicidal activity, cool season; format: in vivo, Lamium purpureum; conditions: lowest tested rate with 80% or greater inhibition; rates 300, 100, 30, 10 g/ha; about 14 days
Method in brief: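 Seeds sown in sterilised fertilised topsoil received surface-applied compound in 50:50 acetone/water, typically at 300, 100, 30 and 10 g/ha, then greenhouse-grown at 30/21° C (warm-season species) or 18/13° C (cool-season species). Percent inhibition versus untreated plants was scored at about 14 days, giving GR80; an asterisk marks activity short of 80% at the top rate.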

ALOMY (blackgrass) = experiment: Pre-emergence herbicidal activity, cool season; format: in vivo, Alopecurus myosuroides; conditions: GR80 = lowest tested rate (300, 100, 30, 10 g/ha) with 80% or greater inhibition; approx. 14 days after treating; 18/13° C.
Method in brief: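 Seeds were sown in sterilized, fertilized topsoil, covered, and the soil surface was sprayed with compound in 50:50 acetone/water at 300, 100, 30 and 10 g/ha. Pots were held at 30/21 °C day/night (PANMI, DIGSA) or 18/13 °C (ALOMY, POLCO). GR80 came from percent inhibition versus untreated plants at about 14 days.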

PANDI (fall panicum) = experiment: Pre-plant incorporated (PPI) herbicidal activity, warm season; format: in vivo, Panicum dichotomiflorum; conditions: pre-plant incorporated; lowest tested rate with 80% or greater inhibition; about 14 days
Method in brief: (§1)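 Greenhouse PPI test with treated cover soil over seeds; % inhibition vs untreated at about 14 days.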

DIGSA (large crabgrass) = experiment: as above; format: in vivo, Digitaria sanguinalis; conditions: for Percent inhibition DIGSA: PPI application
Method in brief: as §1

[2] = system: VERPE (creeping speedwell); experiment: Pre-plant incorporated (PPI) herbicidal activity, cool season; format: in vivo, Veronica persicaria; conditions: for Percent inhibition VERPE: weed, PPI application
Method in brief: as §1

[3] = system: AGSST (creeping bentgrass); experiment: as above; format: in vivo, Agrostis stolonifera; conditions: for Percent inhibition AGSST: weed, PPI application
Method in brief: as §1

AVEFA (wild oat) = experiment: Post-emergence herbicidal activity, cool season; format: in vivo, Avena fatua; conditions: abraded plants sprayed at 300, 100, 30 and 10 g/ha; about 14 days after treatment
Method in brief: (§2)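 Greenhouse-grown seedlings were abraded 9–14 days after planting, then sprayed at 300, 100, 30 and 10 g/ha in acetone:water (3,100 l/ha). Grown at 18/13 °C day/night, percent inhibition versus abraded unsprayed controls was scored about 14 days after treatment and GR80 assigned.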

[4] = system: AEGCY (jointed goatgrass); experiment: Post-emergence herbicidal activity, cool season; format: in vivo, Aegilops cylindrica; conditions: abraded plants sprayed at 300, 100, 30 and 10 g/ha; about 14 days after treatment
Method in brief: as §2

[5] = system: AGSST (creeping bentgrass); experiment: Post-emergence herbicidal activity, cool season; format: in vivo, Agrostis stolonifera; conditions: abraded plants sprayed at 300, 100, 30 and 10 g/ha; about 14 days after treatment
Method in brief: as §2

[6] = pre-plant incorporated, lowest tested rate with 80% or greater inhibition, about 14 days

SMILES: C=C(CC(F)(F)S(=O)(=O)c1ncn(C(=O)N(CC)CC)n1)C[Si](C)(C)C [Example 20]
- Pre-emergence activity GR80, LAMPU [1]: 100 g/ha
- Pre-emergence activity (GR80) ALOMY (ALOMY (blackgrass)): 100 g/ha
- PPI activity GR80, PANDI (PANDI (fall panicum)): 100 g/ha
- Percent inhibition DIGSA (DIGSA (large crabgrass); 10 g/ha): 0%
- Percent inhibition DIGSA (DIGSA (large crabgrass); 30 g/ha): 80%
- Percent inhibition DIGSA (DIGSA (large crabgrass); 100 g/ha): 90%
- Percent inhibition DIGSA (DIGSA (large crabgrass); 300 g/ha): 100%
- Percent inhibition DIGSA (DIGSA (large crabgrass); 900 g/ha): 99%
- PPI activity GR80, DIGSA (DIGSA (large crabgrass); [6]): 100 g/ha
- PPI activity GR80, VERPE [2, 6]: 30 g/ha
- Percent inhibition VERPE ([2]; 10 g/ha): 0%
- Percent inhibition VERPE ([2]; 30 g/ha): 90%
- Percent inhibition VERPE ([2]; 100 g/ha): 50%
- Percent inhibition VERPE ([2]; 300 g/ha): 90%
- Percent inhibition VERPE ([2]; 900 g/ha): 95%
- PPI activity GR80, AGSST [3, 6]: 30 g/ha
- Percent inhibition AGSST ([3]; 10 g/ha): 0%
- Percent inhibition AGSST ([3]; 30 g/ha): 10%
- Percent inhibition AGSST ([3]; 100 g/ha): 85%
- Percent inhibition AGSST ([3]; 300 g/ha): 75%
- Percent inhibition AGSST ([3]; 900 g/ha): 100%
- Post-emergence activity GR80, AVEFA (AVEFA (wild oat)): [empty]
- Post-emergence activity GR80, AEGCY [4]: [empty]
- Post-emergence activity GR80, AGSST [5]: [empty]
